The structures appear in SMILES notation.

This is an account of results in patent US20170029388A1, “Treatment of Neurodegenerative Diseases with Asparagine Endopeptidase (AEP) Inhibitors and Compositions Related Thereto” (INTERCONTINENTAL GREAT BRANDS LLC, priority 2014, published 2017).

Series [1] addresses Cathepsin-L (Homo sapiens, UniProt P07711). Kind of series: Cathepsin-L enzymatic assay (specificity). It counts as biochemical. As to the method: (§1) Purified recombinant enzyme was incubated with various concentrations of inhibitor in appropriate assay buffers in the presence of increasing concentrations of inhibitor. The formation of fluorescent product was monitored in duplicate reactions and the data was fit to appropriate equations to calculate the IC50 values.
(§2) To identify small-molecule inhibitors of AEP, a high-throughput screen was designed in conjunction with the Emory Chemical Biology Discovery Center. The screen incorporated mouse kidney lysates to assay a 54,384 compound library. […] Additional structural analysis and grouping allowed the compounds to be sorted into 8 distinct backbone families. […] The specificity of the compounds was also determined using four major cysteine proteases (FIG. 2).
Cathepsin-L—100 nM enzyme was pre-incubated with inhibitor in assay buffer (100 mM Sodium Acetate pH 5.5, 1 mM EDTA) for 10 min at 37° C. The reaction was initiated upon addition of 25 μM substrate (D-Val-Leu-Lys-AMC (Bachem)).

For series [2], the system named is HepG2 cells. In words: COMET assay and micronucleus assay (genotoxicity). It is filed as cell-based, human. Conditions: 50 μM, 24 hr. As to the method: A. MTT assay, in which 50 μM of each compound was incubated with HepG2 cells for 24 hrs. The compound-containing medium was removed and the cells were incubated with MTT solution for 3 hrs. Subsequently, the MTT solution was replaced with DMSO and the 0D570 was observed. B. LDH assay, in which 50 μM of each compound was incubated with primary culture neurons for 48 hrs. The media was then collected and incubated with LDH assay substrate for 30 min at room temp, in the dark. After the reactions were quenched, the 0D490 was observed. C. COMET assay results; 50 μM compound was incubated with HepG2 cells for 24 hrs. The cells were then added low-melt agarose and plated on microscope slides. The cells were lysed and the DNA was denatured and subject to electrophoresis. Finally, the DNA was stained with SYBR Green and 100 nuclei were counted for each sample, in each experiment; the experiment was performed in triplicate. […] Cells were fixed and nuclei were stained with DAPI and 1,000 cells were counted per sample; three independent experiments were performed.
In an effort to characterize the toxicity of the compounds, an MTT assay was performed using human hepatocellular carcinoma, HepG2 cells and primary culture neurons to monitor the cell viability. […] The cytotoxicity of the compounds in primary neuronal cultures was determined using an LDH assay to measure cytolysis (FIG. 4B). […]

Series [3] has as its target T1, Caspase-3 (Homo sapiens, UniProt P42574).
T1 construct: purchased Millipore
In words: Caspase-3 enzymatic assay (specificity). It counts as biochemical. As to the method: as §1, §2
(§3) Caspase-3 and 8 —The enzyme was pre-incubated with inhibitor in assay buffer (100 mM HEPES pH 7.4, 0.1% CHAPS, 10% Sucrose) for 10 min at 37° C. The reaction was initiated upon addition of 25 μM substrate (Ac-Asp-Glu-Val-Asp-AMC (Bachem)).

Series [4] deals with T2, Caspase-8 (Homo sapiens, UniProt Q14790).
T2 construct: purchased Millipore
T2 sequence (Q14790 217-374 limits assumed, species assumed): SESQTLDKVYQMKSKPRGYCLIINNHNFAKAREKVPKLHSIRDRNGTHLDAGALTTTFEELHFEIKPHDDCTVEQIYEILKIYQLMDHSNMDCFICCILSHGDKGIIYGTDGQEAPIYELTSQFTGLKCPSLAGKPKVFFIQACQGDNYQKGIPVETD
T2 sequence (Q14790 385-479 limits assumed, species assumed): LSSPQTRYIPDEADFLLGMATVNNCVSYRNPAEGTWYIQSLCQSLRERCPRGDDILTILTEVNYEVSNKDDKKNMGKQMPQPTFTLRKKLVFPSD
In words: Caspase-8 enzymatic assay (specificity). It counts as biochemical. As to the method:
as §1, §2, §3

For series [5], the target named is T3, Cathepsin-S (Homo sapiens, UniProt P25774).
T3 construct: purchased Athens Research and Technology
T3 sequence (P25774 115-331): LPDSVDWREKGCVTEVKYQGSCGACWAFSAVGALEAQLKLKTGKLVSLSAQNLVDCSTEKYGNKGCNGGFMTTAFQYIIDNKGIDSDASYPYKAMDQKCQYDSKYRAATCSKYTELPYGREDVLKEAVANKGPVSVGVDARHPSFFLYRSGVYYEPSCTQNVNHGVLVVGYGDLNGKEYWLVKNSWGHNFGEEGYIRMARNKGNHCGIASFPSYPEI
In words: Cathepsin-S enzymatic assay (specificity). It counts as biochemical. As to the method:
as §1, §2
Cathepsin-S—100 nM enzyme was pre-incubated with inhibitor in assay buffer (100 mM NaH2PO4 pH 6.5, 100 mM NaCl) for 10 min at 37° C. The reaction was initiated upon addition of 25 μM substrate (Boc-Val-Leu-Lys-AMC (Bachem)).

Chain of Cathepsin-L (P07711 114-333, species assumed): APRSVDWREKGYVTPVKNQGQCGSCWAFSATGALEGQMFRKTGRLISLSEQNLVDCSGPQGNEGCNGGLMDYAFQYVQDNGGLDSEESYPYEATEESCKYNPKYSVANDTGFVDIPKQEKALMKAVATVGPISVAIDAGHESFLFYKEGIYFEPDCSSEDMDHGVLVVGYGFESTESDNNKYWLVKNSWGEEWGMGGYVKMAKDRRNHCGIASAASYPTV
T1 sequence (P42574 29-175 limits assumed, species assumed): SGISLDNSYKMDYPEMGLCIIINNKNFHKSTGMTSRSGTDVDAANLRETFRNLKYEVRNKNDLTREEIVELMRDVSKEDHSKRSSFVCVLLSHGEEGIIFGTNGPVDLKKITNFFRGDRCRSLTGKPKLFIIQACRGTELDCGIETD
T1 sequence (P42574 176-277 limits assumed, species assumed): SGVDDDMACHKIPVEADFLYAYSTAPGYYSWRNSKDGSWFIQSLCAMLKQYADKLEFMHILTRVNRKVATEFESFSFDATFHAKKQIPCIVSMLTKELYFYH

Usually IC50 stands for the concentration needed to halve the response being measured. Consider `CN(C)c1ccc(N2C(=O)C=CC2=O)cc1` [Compound 22], for which the IC50 in series [1], in series [3], in series [4] and in series [5] was greater than 100 µM throughout. Also, the “genotoxicity (COMET and micronucleus assays)” value in series [2] is “the only test compound to show genotoxicity”.
